Data reported in patent US4442044A, “Process for preparing monoesters and diesters of N-alkyl substituted amino methyl phosphonic acid” (priority 1983, dated 1984).

Assays:
Assay in all cases: post-emergent herbicidal activity, greenhouse
Type in all cases: in vivo
Conditions in all cases: Table I
[1] = test system: Canada Thistle
Description: (§1) A good grade of top soil is placed in aluminum pans having holes in the bottom and compacted to a depth of 0.95 to 1.27 cm. from the top of the pan. A predetermined number of seeds of each of several dicotyledonous and monocotyledonous annual plant species and/or vegetative propagules for the perennial plant species were placed on the soil and pressed into the soil surface. The seeds and/or vegetative propagules are covered with soil and leveled. The pans are then placed on a sand bench in the greenhouse and watered from below as needed. After the plants reach the desired age (two to three weeks), each pan except for the control pans is removed individually to a spraying chamber and sprayed by means of an atomizer operating at a positive air pressure of approximately 1.46 kg/cm^2 absolute. The atomizer contains 6 ml. of a solution or suspension of the chemical. In that 6 ml., is an amount of a cyclohexanone emulsifying agent mixture to give a spray solution or suspension which contains about 0.4% by weight of the emulsifier. The spray solution or suspension contains a sufficient amount of the candidate chemical in order to give application rates corresponding to those set forth in the tables. The spray solution is prepared by taking an aliquot of a 1.0% by weight stock solution or suspension of the candidate chemical in an organic solvent such as acetone or tetrahydrofuran or in water. The emulsifying agent employed is a mixture comprising 35 weight percent butylamine dodecylbenzene sulfonate and 65 weight percent of a tall oil ethylene oxide condensate having about 11 moles of ethylene oxide per mole of tall oil. The pans are returned to the greenhouse and watered as before and the injury to the plants as compared to the control is observed at approximately two and four weeks as indicated in the tables under WAT and the results recorded. In some instances, the two-week observations are omitted.
(§2) The post-emergent herbicidal activity index used in Tables I and II is as follows: […]

[2] = test system: Barnyardgrass
Description: as §1, §2

[3] = test system: Cocklebur
Description: as §1, §2

[4] = test system: Morningglory
Description: as §1, §2

[5] = test system: Lambsquarters
Description: as §1, §2

[6] = test system: Downy Brome
Description: as §1, §2

[7] = test system: Johnsongrass
Description: as §1, §2

[8] = test system: Quackgrass
Description: as §1, §2

[9] = test system: Yellow Nutsedge
Description: as §1, §2

[10] = test system: Smartweed
Description: as §1, §2

[11] = test system: Velvetleaf
Description: as §1, §2

CC(C#N)OP(=O)(CNC(C)(C)C)OC(C)C#N (centres unmarked) [Example 4, phosphonic acid, [[(1,1-dimethylethyl)amino]methyl]-,bis(1-cyanoethyl) ester]
post-emergent herbicidal activity index ([1]; 2 WAT, 11.2 kg/h): 0 (0-24% control) | post-emergent herbicidal activity index ([2]; 2 WAT, 11.2 kg/h): 1 (25-49% control) | post-emergent herbicidal activity index ([3]; 2 WAT, 11.2 kg/h): 0 (0-24% control) | post-emergent herbicidal activity index ([4]; 2 WAT, 11.2 kg/h): 0 (0-24% control) | post-emergent herbicidal activity index ([5]; 2 WAT, 11.2 kg/h): 1 (25-49% control) | post-emergent herbicidal activity index ([6]; 2 WAT, 11.2 kg/h): 0 (0-24% control) | post-emergent herbicidal activity index ([7]; 2 WAT, 11.2 kg/h): 0 (0-24% control) | post-emergent herbicidal activity index ([8]; 2 WAT, 11.2 kg/h): 0 (0-24% control) | post-emergent herbicidal activity index ([9]; 2 WAT, 11.2 kg/h): 0 (0-24% control) | post-emergent herbicidal activity index ([10]; 2 WAT, 11.2 kg/h): 1 (25-49% control) | post-emergent herbicidal activity index ([11]; 2 WAT, 11.2 kg/h): 0 (0-24% control)

N#CCCOP(=O)(CNCC#N)OCCC#N [Example 11, phosphonic acid, [[(cyanomethyl)amino]-methyl],bis 2-(cyanoethyl)ester]
post-emergent herbicidal activity index ([1]; 2 WAT, 5.6 kg/h): 0 (0-24% control) | post-emergent herbicidal activity index ([1]; 4 WAT, 11.2 kg/h): 2 (50-74% control) | post-emergent herbicidal activity index ([2]; 2 WAT, 5.6 kg/h): 0 (0-24% control) | post-emergent herbicidal activity index ([2]; 4 WAT, 11.2 kg/h): 1 (25-49% control) | post-emergent herbicidal activity index ([3]; 2 WAT, 5.6 kg/h): 0 (0-24% control) | post-emergent herbicidal activity index ([3]; 4 WAT, 11.2 kg/h): 1 (25-49% control) | post-emergent herbicidal activity index ([4]; 2 WAT, 5.6 kg/h): 0 (0-24% control) | post-emergent herbicidal activity index ([4]; 4 WAT, 11.2 kg/h): 2 (50-74% control) | post-emergent herbicidal activity index ([5]; 2 WAT, 5.6 kg/h): 1 (25-49% control) | post-emergent herbicidal activity index ([5]; 4 WAT, 11.2 kg/h): 1 (25-49% control) | post-emergent herbicidal activity index ([6]; 2 WAT, 5.6 kg/h): 0 (0-24% control) | post-emergent herbicidal activity index ([6]; 4 WAT, 11.2 kg/h): 0 (0-24% control) | post-emergent herbicidal activity index ([7]; 2 WAT, 5.6 kg/h): 0 (0-24% control) | post-emergent herbicidal activity index ([7]; 4 WAT, 11.2 kg/h): 0 (0-24% control) | post-emergent herbicidal activity index ([8]; 2 WAT, 5.6 kg/h): 0 (0-24% control) | post-emergent herbicidal activity index ([8]; 4 WAT, 11.2 kg/h): 1 (25-49% control) | post-emergent herbicidal activity index ([9]; 2 WAT, 5.6 kg/h): 0 (0-24% control) | post-emergent herbicidal activity index ([9]; 4 WAT, 11.2 kg/h): 1 (25-49% control) | post-emergent herbicidal activity index ([10]; 2 WAT, 5.6 kg/h): 0 (0-24% control) | post-emergent herbicidal activity index ([10]; 4 WAT, 11.2 kg/h): 1 (25-49% control) | post-emergent herbicidal activity index ([11]; 2 WAT, 5.6 kg/h): 0 (0-24% control) | post-emergent herbicidal activity index ([11]; 4 WAT, 11.2 kg/h): 0 (0-24% control)

CCOC(=O)CNCP(=O)(OC(CC(=O)OCC)C(=O)OCC)OC(CC(=O)OCC)C(=O)OCC (centres unmarked) [Example 14, butanoic acid, 2,2'-[[[(2-ethoxy-2-oxo-ethyl)amino]methyl]phosphinylidene]bis(oxy)-bis-,tetraethyl ester]
post-emergent herbicidal activity index ([1]; 2 WAT, 5.6 kg/h): 0 (0-24% control) | post-emergent herbicidal activity index ([1]; 2 WAT, 11.2 kg/h): 0 (0-24% control) | post-emergent herbicidal activity index ([1]; 2 WAT, 56.0 kg/h): 4 (100% control) | post-emergent herbicidal activity index ([1]; 4 WAT, 56.0 kg/h): 1 (25-49% control) | post-emergent herbicidal activity index ([2]; 2 WAT, 5.6 kg/h): 0 (0-24% control) | post-emergent herbicidal activity index ([2]; 2 WAT, 11.2 kg/h): 0 (0-24% control) | post-emergent herbicidal activity index ([2]; 2 WAT, 56.0 kg/h): 4 (100% control) | post-emergent herbicidal activity index ([2]; 4 WAT, 56.0 kg/h): 3 (75-99% control) | post-emergent herbicidal activity index ([3]; 2 WAT, 5.6 kg/h): 0 (0-24% control) | post-emergent herbicidal activity index ([3]; 2 WAT, 11.2 kg/h): 0 (0-24% control) | post-emergent herbicidal activity index ([3]; 2 WAT, 56.0 kg/h): 4 (100% control) | post-emergent herbicidal activity index ([3]; 4 WAT, 56.0 kg/h): 4 (100% control) | post-emergent herbicidal activity index ([4]; 2 WAT, 5.6 kg/h): 0 (0-24% control) | post-emergent herbicidal activity index ([4]; 2 WAT, 11.2 kg/h): 0 (0-24% control) | post-emergent herbicidal activity index ([4]; 2 WAT, 56.0 kg/h): 3 (75-99% control) | post-emergent herbicidal activity index ([4]; 4 WAT, 56.0 kg/h): 2 (50-74% control) | post-emergent herbicidal activity index ([5]; 2 WAT, 5.6 kg/h): 0 (0-24% control) | post-emergent herbicidal activity index ([5]; 2 WAT, 11.2 kg/h): 0 (0-24% control) | post-emergent herbicidal activity index ([5]; 2 WAT, 56.0 kg/h): 4 (100% control) | post-emergent herbicidal activity index ([5]; 4 WAT, 56.0 kg/h): 4 (100% control) | post-emergent herbicidal activity index ([6]; 2 WAT, 5.6 kg/h): 0 (0-24% control) | post-emergent herbicidal activity index ([6]; 2 WAT, 11.2 kg/h): 0 (0-24% control) | post-emergent herbicidal activity index ([6]; 2 WAT, 56.0 kg/h): 3 (75-99% control) | post-emergent herbicidal activity index ([6]; 4 WAT, 56.0 kg/h): 2 (50-74% control) | post-emergent herbicidal activity index ([7]; 2 WAT, 5.6 kg/h): 0 (0-24% control) | post-emergent herbicidal activity index ([7]; 2 WAT, 11.2 kg/h): 0 (0-24% control) | post-emergent herbicidal activity index ([7]; 2 WAT, 56.0 kg/h): 3 (75-99% control) | post-emergent herbicidal activity index ([7]; 4 WAT, 56.0 kg/h): 3 (75-99% control) | post-emergent herbicidal activity index ([8]; 2 WAT, 5.6 kg/h): 0 (0-24% control) | post-emergent herbicidal activity index ([8]; 2 WAT, 11.2 kg/h): 0 (0-24% control) | post-emergent herbicidal activity index ([8]; 2 WAT, 56.0 kg/h): 4 (100% control) | post-emergent herbicidal activity index ([8]; 4 WAT, 56.0 kg/h): 3 (75-99% control) | post-emergent herbicidal activity index ([9]; 2 WAT, 5.6 kg/h): 0 (0-24% control) | post-emergent herbicidal activity index ([9]; 2 WAT, 11.2 kg/h): 0 (0-24% control) | post-emergent herbicidal activity index ([9]; 2 WAT, 56.0 kg/h): 4 (100% control) | post-emergent herbicidal activity index ([9]; 4 WAT, 56.0 kg/h): 1 (25-49% control) | post-emergent herbicidal activity index ([10]; 2 WAT, 5.6 kg/h): 0 (0-24% control) | post-emergent herbicidal activity index ([10]; 2 WAT, 11.2 kg/h): 0 (0-24% control) | post-emergent herbicidal activity index ([10]; 2 WAT, 56.0 kg/h): 4 (100% control) | post-emergent herbicidal activity index ([10]; 4 WAT, 56.0 kg/h): 3 (75-99% control) | post-emergent herbicidal activity index ([11]; 2 WAT, 5.6 kg/h): 0 (0-24% control) | post-emergent herbicidal activity index ([11]; 2 WAT, 11.2 kg/h): 0 (0-24% control) | post-emergent herbicidal activity index ([11]; 2 WAT, 56.0 kg/h): 4 (100% control) | post-emergent herbicidal activity index ([11]; 4 WAT, 56.0 kg/h): 3 (75-99% control)
